The record followed here is ChEMBL document CHEMBL5726901, “Heterocyclic inhibitors of PTPN11” (2019).

By IC50 is commonly meant the concentration that gives 50% inhibition.

A short description of the assay: pERK AlphaScreen Protocol: KYSE-520 cells (10 k cells/well) were grown in 384-well plate in 20 uL of medium (RPMI-1640, without phenol red, containing 10% FBS) at 37° C. with 5% CO2 overnight. DMSO (control) or increasing concentrations of compounds were diluted in medium, added to the 384-well plate (5 uL/well, final DMSO concentration of 1%), and cells were then incubated with compounds for 2 hr. Phospho-ERK levels were measured using phospho-ERK1/2 AlphaScreen SureFire (PerkinElmer, TGRESB10K) following manufacturer's recommendations. Dose-response curves were analyzed using IC50 regression curve fitting (GeneData Screener). Curves were normalized to a high control without inhibitor (DMSO only), and low control (1 μM selumetinib). Conditions: KYSE-520, 2 h. A general note: Alpha assays give light when donor and acceptor beads are brought close together.

With `COc1ccc(CNc2nccc(C(=O)c3ncc(N4CCC(C)([C@@H](C)N[S+]([O-])C(C)(C)C)CC4)nc3Cl)c2Cl)cc1` (some centres not stated), the IC50 is 100 nM. For `CC1(N)CCN(c2cnc3c(-c4cc(N)ccc4Cl)n[nH]c3n2)CC1` the value was 406 nM.
